From patent US20090074757A1, “Antitumor Combination Comprising Substituted Acryloyl Distamycin Derivatives and Antibodies Inhibiting Growth Factors or Their Receptors” (priority 2005, published 2009)

Test system: DU145 human prostate carcinoma cells
Test: In vivo antitumor efficacy, DU145 human prostate carcinoma xenograft in athymic mice
Set-up: species or system Balb Nu/Nu athymic mice
Conditions: for Toxicity: evaluated on the basis of body weight reduction, animals per group of 8, bevacizumab 20 mg/kg i.p., brostallicin 0.2 mg/kg i.v.; for Time to reach 1 g / T-C (days), delay for treated vs control tumors to reach 1 g: s.c. DU145 tumors in athymic mice, bevacizumab 20 mg/kg i.p. days 6,10,13,17,20,24; for Time to reach 1 g: treatment from day 6, brostallicin 0.2 mg/kg i.v. days 6,13,20 (q7d x 3); for T-C (days), delay for treated vs control tumors to reach 1 g: brostallicin 0.2 mg/kg i.v. days 6,13,20
Procedure: Balb Nu/Nu, male mice, (athymic mice) from Harlan, Italy, were maintained in cages with paper filter covers, food and bedding sterilized and water acidified. 2.5×10^6 DU145 human prostate carcinoma cells (from American Type Culture Collection) were injected subcutaneously in athymic mice. […] The treatments started 6 days later when the tumors were palpable. All drugs were prepared immediately before use. Brostallicin treatments were administered intravenously in a volume of 10 ml/kg at a dose of 0.2 mg/kg and treatments were repeated weekly for 3 weeks. Bevacizumab was administered intraperitoneally in a volume of 10 ml/kg at a dose of 20 mg/kg on the days 6, 10, 13, 17, 20 and 24 from the day of cell injection. When both compounds were administered on the same day, bevacizumab was administered intraperitoneally immediately before brostallicin intravenous injection. Every 3 days the tumor growth and the net body weight were evaluated. Tumor growth was assessed by caliper. The two diameters were recorded, and the tumor weight was calculated according to the following formula: length (mm)×width^2 (mm)/2. The effect of the antitumor treatment was determined as the delay in the onset of an exponential growth of tumors [see for reference, Anti Cancer Drugs 7: 437-60, 1996]. This delay (T-C value) was defined as the difference of the time (in days) required for the treatment group (T) and the control group (C) tumors to reach a predetermined size (e.g. 1 g). Toxicity was evaluated on the basis of the body weight reduction.

Compound | Toxicity | Time to reach 1 g | T-C (days), delay for treated vs control tumors to reach 1 g
C=C(Br)C(=O)Nc1cc(C(=O)Nc2cc(C(=O)Nc3cc(C(=O)Nc4cc(C(=O)NCCNC(=N)N)n(C)c4)n(C)c3)n(C)c2)n(C)c1.Cl [Brostallicin, N-(5-{[(5-{[(5-{[(2-{[amino(imino)methyl]amino}ethyl)amino]carbonyl}-1-methyl-1H-pyrrol-3-yl)amino]carbonyl}-1-methyl-1H-pyrrol-3-yl)amino]carbonyl}-1-methyl-1H-pyrrol-3-yl)-4-[(2-bromoacryloyl)amino]-1-methyl-1H-pyrrole-2-carboxamide hydrochloride] | 0/8 | 18.4 ± 5.6 days | 4.6 days
Bevacizumab: monoclonal antibody directed against the vascular endothelial growth factor (VEGF), a potent neo-vascularisation inhibitor | 0/8 | 23.4 ± 4.6 days | 9.6 days
